The results in this text go back to publication PMC9279378, “Mode of action of fluopyram in plant-parasitic nematodes” (Scientific Reports, 2022).

What all share (details): pH 7.2; 20 µM decylubiquinone, 100 µM DCPIP, 0.33% succinate, 1 µM antimycin, 4% DMSO
Experiment [1] concerns the target T1, C. elegans SDH (mitochondrial complex II) (Caenorhabditis elegans, UniProt O62215+P41956+Q09545).
T1 construct: gene sdhb-1; native complex II in mitochondrial preparation; wild-type strain N2 named for cultures, not explicitly for the mitochondria; with Succinate dehydrogenase [ubiquinone] flavoprotein subunit, mitochondrial
In words: succinate:ubiquinone reductase assay, DCPIP reduction at […] nm, mitochondrial protein. The class given is biochemical.

For experiment [2], the target named is T2, SDH (mitochondrial complex II) of earthworm.
T2 construct: gene SDHB; native complex II in mitochondrial preparation from earthworm; with Succinate dehydrogenase [ubiquinone] flavoprotein subunit, mitochondrial
The experiment is described as above. The class given is biochemical, Eisenia andrei.

The target of experiment [3] is T3, SDH (mitochondrial complex II) of rat (Rattus norvegicus, UniProt P21913+Q641Z9+Q6PCT8).
T3 construct: gene Sdhb
T3 sequence (P21913 31-282): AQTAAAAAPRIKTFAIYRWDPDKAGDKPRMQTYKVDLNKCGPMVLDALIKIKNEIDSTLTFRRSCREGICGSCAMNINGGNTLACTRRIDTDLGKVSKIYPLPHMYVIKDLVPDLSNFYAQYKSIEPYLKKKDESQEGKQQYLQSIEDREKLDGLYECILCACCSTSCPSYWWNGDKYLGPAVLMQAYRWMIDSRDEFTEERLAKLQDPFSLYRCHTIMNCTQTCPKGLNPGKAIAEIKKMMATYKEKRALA
T3 sequence (Q641Z9 30-169): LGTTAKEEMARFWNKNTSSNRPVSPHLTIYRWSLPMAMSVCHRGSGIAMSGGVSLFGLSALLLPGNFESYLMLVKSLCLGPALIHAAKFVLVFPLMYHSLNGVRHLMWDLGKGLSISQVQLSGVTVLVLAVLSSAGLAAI
T3 sequence (Q6PCT8 57-159): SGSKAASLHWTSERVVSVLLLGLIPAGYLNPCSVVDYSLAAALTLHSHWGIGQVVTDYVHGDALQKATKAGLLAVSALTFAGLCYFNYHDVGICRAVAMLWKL
T3 sequence (Q920L2 35-656 partner): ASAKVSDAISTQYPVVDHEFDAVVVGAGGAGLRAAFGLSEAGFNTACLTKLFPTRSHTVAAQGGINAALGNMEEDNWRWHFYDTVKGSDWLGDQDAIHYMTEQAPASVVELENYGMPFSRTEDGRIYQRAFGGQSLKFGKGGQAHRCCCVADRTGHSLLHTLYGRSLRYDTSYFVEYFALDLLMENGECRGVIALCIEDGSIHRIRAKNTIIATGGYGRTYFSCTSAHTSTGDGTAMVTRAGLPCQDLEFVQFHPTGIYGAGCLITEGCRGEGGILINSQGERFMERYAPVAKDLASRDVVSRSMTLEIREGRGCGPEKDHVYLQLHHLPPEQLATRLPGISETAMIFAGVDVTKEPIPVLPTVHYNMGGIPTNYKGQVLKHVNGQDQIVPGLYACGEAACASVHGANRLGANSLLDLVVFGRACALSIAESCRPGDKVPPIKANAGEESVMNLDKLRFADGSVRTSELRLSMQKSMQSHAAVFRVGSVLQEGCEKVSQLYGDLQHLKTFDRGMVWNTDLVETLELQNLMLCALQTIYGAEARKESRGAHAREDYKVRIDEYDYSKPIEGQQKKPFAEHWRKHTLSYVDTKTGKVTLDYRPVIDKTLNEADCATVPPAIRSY

T1 sequence (Q09545 36-298): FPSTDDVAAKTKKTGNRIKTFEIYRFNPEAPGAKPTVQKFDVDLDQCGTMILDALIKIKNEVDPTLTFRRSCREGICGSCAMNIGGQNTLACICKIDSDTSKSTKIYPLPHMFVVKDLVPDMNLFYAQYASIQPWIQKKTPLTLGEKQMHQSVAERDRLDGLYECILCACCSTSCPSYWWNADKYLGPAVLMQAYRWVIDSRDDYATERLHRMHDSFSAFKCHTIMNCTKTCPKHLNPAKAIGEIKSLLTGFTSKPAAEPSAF
T1 sequence (P41956 31-182): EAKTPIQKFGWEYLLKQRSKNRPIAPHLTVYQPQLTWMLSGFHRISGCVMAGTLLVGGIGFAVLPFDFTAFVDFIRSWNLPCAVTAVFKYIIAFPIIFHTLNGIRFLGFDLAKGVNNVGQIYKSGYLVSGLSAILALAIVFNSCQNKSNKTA
T1 sequence (O62215 32-145): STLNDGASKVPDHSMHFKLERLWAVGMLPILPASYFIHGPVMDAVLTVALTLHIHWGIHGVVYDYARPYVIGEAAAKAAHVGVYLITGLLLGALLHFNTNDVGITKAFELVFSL
T1 sequence (Q09508 32-646 partner): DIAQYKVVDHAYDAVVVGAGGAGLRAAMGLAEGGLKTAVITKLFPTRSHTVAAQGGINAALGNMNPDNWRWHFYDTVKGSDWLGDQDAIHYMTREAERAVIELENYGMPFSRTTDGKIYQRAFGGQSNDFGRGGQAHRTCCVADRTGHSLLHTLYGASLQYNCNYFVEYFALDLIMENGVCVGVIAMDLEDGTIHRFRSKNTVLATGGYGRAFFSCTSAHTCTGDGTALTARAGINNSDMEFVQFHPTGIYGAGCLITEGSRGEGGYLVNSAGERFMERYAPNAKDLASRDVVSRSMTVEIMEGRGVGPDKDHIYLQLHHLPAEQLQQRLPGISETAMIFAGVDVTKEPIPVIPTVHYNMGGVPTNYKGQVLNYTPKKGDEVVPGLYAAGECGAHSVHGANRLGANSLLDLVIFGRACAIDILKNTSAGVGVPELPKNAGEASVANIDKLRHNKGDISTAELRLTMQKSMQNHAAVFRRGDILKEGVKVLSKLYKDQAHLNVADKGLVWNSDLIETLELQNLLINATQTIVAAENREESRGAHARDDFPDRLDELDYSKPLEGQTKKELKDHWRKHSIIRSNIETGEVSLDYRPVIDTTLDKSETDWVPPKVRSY

As for `COc1[nH]c(=O)c(C(=O)[C@@H](C)C[C@H](C)[C@@H](Cl)CCl)c(O)c1OC` [Atpenin A5], the pIC50 (as a rule, −log10 of the IC50, conventionally taken in molar units) in experiment [1] was determined as 7.7; in experiment [2], 8.1; in experiment [3] it was 8.2.
`O=C(NCCc1ncc(C(F)(F)F)cc1Cl)c1ccccc1C(F)(F)F` [fluopyram]: the pIC50 in experiment [1] is 8.5.
For `CC(C)Oc1cccc(NC(=O)c2ccccc2C(F)(F)F)c1` [flutolanil], the values for the pIC50 in experiment [1] and in experiment [2] were 6.5 and 6.0, respectively.
